The text below walks through data of ChEMBL document CHEMBL1201862, “PubChem BioAssay data set” (2004).

Among the test systems are A498; CCRF-CEM; NCI-H460; MDA-MB-231; SNB-19; CAKI-1; RPMI-8226; A549; NCI-H522; Hs-578T; U-251; DU-145; HOP-62; SK-MEL-28; NCI/ADR-RES; TK-10; OVCAR-4; NCI-H23; KM12; K562.
Assay in all cases: NCI-60 cell line screen, 48 h

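Grown in 96-well plates, cells were treated for 48 hours with each compound at five concentrations. Insufficient inhibition: endpoint recorded as highest concentration tested. At the GI50, growth is halved.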 Activity calls are given as the source filed them. No stated cut-off is given here; in the data, active = GI50 up to about 1.1 µM and inactive = higher.

Regarding `O=C(O)C1(CC(CCCN2CCCCC2)c2ccccc2)CCCC1` (stereo not given), the GI50 in the test on A498, with CCRF-CEM, with NCI-H460, with MDA-MB-231, with SNB-19 and with CAKI-1 was > 100 µM (inactive) throughout. The GI50 in the test on RPMI-8226, in the test with A549, in the test on NCI-H522, with Hs-578T, in the test on U-251 and in the test on DU-145 was > 100 µM (inactive) each time. The GI50 with HOP-62, in the test with SK-MEL-28, in the test on NCI/ADR-RES, in the test on TK-10, with OVCAR-4 and in the test on NCI-H23 was > 100 µM (inactive) in each case. The GI50 with KM12 and in the test with K562 was > 100 µM (inactive) throughout.
For `Cc1ccc(C(C)C)c(OCC(=O)N/N=C/c2c[nH]c3ccc(Br)cc23)c1`, the GI50 in the test with A498 was 4.09 µM (inactive); in the test with CCRF-CEM, 2.11 µM (inactive); in the test with NCI-H460 it was 2.17 µM (inactive); in the test with MDA-MB-231, 3.17 µM (inactive); in the test with SNB-19 it was 2.87 µM (inactive); with CAKI-1 it was 2.55 µM (inactive). For the same molecule, the GI50 is 2.47 µM (inactive) in the test on RPMI-8226; 3.1 µM (inactive) in the test on A549; 1.43 µM (inactive) in the test on NCI-H522; 4.82 µM (inactive) in the test with Hs-578T; 3.11 µM (inactive) with U-251; 2.56 µM (inactive) with DU-145. In addition, the GI50 in the test with HOP-62 was 5.79 µM (inactive); with SK-MEL-28 it was 8.93 µM (inactive); in the test with NCI/ADR-RES, 1.57 µM (inactive); in the test on TK-10, 2.4 µM (inactive); with OVCAR-4 it was 3 µM (inactive); in the test with NCI-H23, 0.451 µM (active). Further, the results for the GI50 in the test on KM12 and with K562 were 1.41 µM (inactive) and 2.38 µM (inactive), respectively.
Take `S=C(N/N=C/c1ccccn1)Nc1ccc(Cl)cc1`: the GI50 in the test on A498 was 4.1 µM (inactive); with CCRF-CEM, < 0.01 µM (active); in the test with NCI-H460, 0.0635 µM (active); in the test with MDA-MB-231 it was 0.0542 µM (active); in the test with SNB-19 it was 0.483 µM (active); in the test with CAKI-1 it was < 0.0125 µM (active). In addition, the GI50 is 0.134 µM (active) in the test on RPMI-8226; 0.307 µM (active) in the test with A549; 0.028 µM (active) with NCI-H522; 1.85 µM (inactive) with Hs-578T; 0.0528 µM (active) in the test on U-251; 0.126 µM (active) with DU-145. Besides, the GI50 was 0.181 µM (active) with HOP-62; 0.413 µM (active) with SK-MEL-28; 0.0366 µM (active) with NCI/ADR-RES; 2.93 µM (inactive) in the test with TK-10; 0.689 µM (active) in the test on OVCAR-4; 0.104 µM (active) in the test on NCI-H23. The GI50 in the test on KM12 was 0.175 µM (active); with K562, < 0.01 µM (active).
With `CC(=O)OC1COC(Nc2nc(NCc3ccccc3)n(C)c(=O)c2N=O)C(OC(C)=O)C1OC(C)=O` (stereo not given), the GI50 in the test on A498, in the test on CCRF-CEM, with NCI-H460, in the test on MDA-MB-231, in the test on SNB-19 and in the test on CAKI-1 was > 10 µM (inactive) throughout. The GI50 in the test with RPMI-8226, with A549, in the test with NCI-H522, in the test on Hs-578T, in the test with U-251 and in the test with DU-145 was > 10 µM (inactive) throughout. The GI50 in the test on HOP-62, in the test with SK-MEL-28, in the test on NCI/ADR-RES, in the test on TK-10, in the test on OVCAR-4 and with NCI-H23 was > 10 µM (inactive) in each case. For the same molecule, the GI50 in the test on KM12 and in the test on K562 was > 10 µM (inactive) each time.
With `COCCOC1=C(Cl)C(=O)c2c(O)ccc(O)c2C1=O`, the GI50 is 10.4 µM (inactive) in the test with A498; 0.111 µM (active) in the test with CCRF-CEM; 5.52 µM (inactive) in the test on NCI-H460; 1.41 µM (inactive) with MDA-MB-231; 14.6 µM (inactive) in the test with SNB-19; 0.438 µM (active) in the test with CAKI-1. In addition, the GI50 was 0.741 µM (active) in the test with RPMI-8226; 8.34 µM (inactive) with A549; 0.681 µM (active) in the test on NCI-H522; 3.24 µM (inactive) with Hs-578T; 4.75 µM (inactive) in the test with U-251; 5.26 µM (inactive) in the test on DU-145. Also, the GI50 was 3.33 µM (inactive) with HOP-62; 2.27 µM (inactive) with SK-MEL-28; 2.84 µM (inactive) with NCI/ADR-RES; 1.47 µM (inactive) with TK-10; 1.94 µM (inactive) in the test with OVCAR-4; 2.25 µM (inactive) with NCI-H23. Moreover, the GI50 is 9.48 µM (inactive) in the test with KM12 and 0.635 µM (active) with K562.
On to `CC1(C)N=c2c(ncn2-c2ccccc2)=C(C(N)=O)N1`, for which the GI50 in the test on A498, in the test on CCRF-CEM, with NCI-H460, in the test on MDA-MB-231, in the test with SNB-19 and in the test with CAKI-1 was > 100 µM (inactive) throughout. The GI50 in the test on RPMI-8226, in the test with A549, in the test on NCI-H522, in the test on Hs-578T, with U-251 and in the test with DU-145 was > 100 µM (inactive) throughout. The GI50 with HOP-62, in the test with SK-MEL-28, in the test with NCI/ADR-RES, in the test with TK-10, in the test with OVCAR-4 and with NCI-H23 was > 100 µM (inactive) each time. Also, the GI50 in the test on KM12 and in the test with K562 was > 100 µM (inactive) throughout.
`CN1CCN2CCN(C)CCN(CC1)CC2`: the GI50 in the test with A498, with CCRF-CEM, in the test with NCI-H460, in the test on MDA-MB-231, in the test on SNB-19 and in the test with CAKI-1 was > 100 µM (inactive) in each case. The GI50 in the test with RPMI-8226, with A549, with NCI-H522, in the test with Hs-578T, in the test with U-251 and in the test on DU-145 was > 100 µM (inactive) throughout. Further, the GI50 in the test on HOP-62, with SK-MEL-28, in the test with NCI/ADR-RES, in the test with TK-10, with OVCAR-4 and in the test on NCI-H23 was > 100 µM (inactive) each time. Further, the GI50 in the test with KM12 and in the test with K562 was > 100 µM (inactive) each time.
